Marks after values point to notes of the source that are not given here.
How the values were obtained:
central 5-HT receptors = experiment: In-vivo determination of rat brain tryptophan hydroxylation (5-HTP formation) after reserpine pretreatment; conditions: reserpine-pretreated rats; for "ED70%" for 5-HTP reduction: s.c., dose giving 70 % of the control 5-HTP level, similar values for limbic forebrain, striatum and hemispheral portions
Protocol: b. In-vivo determination of rat brain tyrosine and tryptophan hydroxylation after reserpine pretreatment (biochemical DA- and 5-HT receptor activity).
The compounds under evaluation were tested biochemically for central DA- and 5-HT-receptor (pre- and/or postsynaptic) stimulating activity. The concept of this biochemical screening method is that a DA- or 5-HT-receptor agonist will stimulate the receptor and through regulatory feedback systems effect a decline-in tyrosine or tryptophan hydroxylating activity, respectively, and a subsequent reduction in the synthesis rate for DA and 5-HT in the presynaptic neuron. Dopa and 5-HTP formation. as determined after in-vivo inhibition of the aromatic L-amino acid decarboxylase with NSO 1015 (3-hydroxybenzylhydrazine hydrochloride) are taken as indirect measures of DA- and 5-HT-synthesis rates, respectively.
Rats (150-300 g) pretreated with reserpine (5 mg/kg, 18 h before) were given the compounds under evaluation. Gross behavioural observations (changes in motility, hindleg abduction etc; c.f. above) were made. Subsequent administration of NSD 1015, decapitation, brain dissection [cerpera striate, the limbic ferebrain and the remaining hemispheral portions (mainly cortex) of rat brain], homogenization, centrifugation, ion-exchange chromatography and spectro- fluorimetric measurements (all as described in detail by Wikström et al., J. Med. Chem., 21, 864-867, 1978 and references cited therein) gave the actual dopa and 5-HTP levels. Several doses (n=4-6) were tested for each compound and brain area. The dose of a compound giving 70 % of the control 5-HTP.level in the rat brain part was then estimated.

Male Wistar rats = experiment: Hetero-sexual (masculine copulatory) behaviour in normal male rats; format: in vivo, rat; conditions: median
Protocol: (§1) Male Wistar rats (12 months old; sexually experienced) were injected i.p. every second day in a balanced order with different doses of the compounds dissolved in physiological saline and injected in a volume of 2 ml/kg. Testing was begun 15 min after the drug treatment.
(§2) Mating arenas were 50' cm diameter acrylic glass cages with wood shavings on the floor. The stimulus females were of Wistar strain, primed with estradiol benzoate . (20 µg/animal) 48 h prior to testing and progesterone ([…]/animal) 4-6 h before testing.
(§3) The occurrence of mounts, intromissions and ejaculations were scored by an experienced observer. The measures of masculine copulatory behavior further included mount latency and intromission latency which are time from introduction of the stimulus female to the first mount and first intromission respectively. A copulatory series includes the mounts and intromissions preceding an ejaculation. Ejaculatory latency is the time from the first .intromission in a copulatory series to the ejaculation terminating that series. The postejaculatory interval is the time from an ejaculation to the next intromission. Tests were terminated when the rat had achieved one ejaculation and started the second series of copulations, or, if the intromission latency was >15 min, the ejaculation latency was >30 min, or the postejaculatory interval was >15 min.

castrated male rats = experiment: Sexual behaviour in castrated male rats (preliminary); format: in vivo, rat
Protocol: as §1, §2, §3

[1] = subgroup 3 of biochemical potency
[2] = subgroup 1 of biochemical potency

Compound: CCCCCCCCNC1CCc2cccc(O)c2C1 (stereo not shown) [Compound 18]
- "ED70%" for 5-HTP reduction (central 5-HT receptors): 50 µmol/kg
- "ED70%" (central 5-HT receptors; [1]): above 10 umol/kg

Compound: CCCCN(CCC)C1CCc2cccc(O)c2C1 (stereo not shown) [Compound 21]
- "ED70%" for 5-HTP reduction (central 5-HT receptors): 0.5 µmol/kg
- "ED70%" (central 5-HT receptors; [2]): 0.01 to 1.0 µmol/kg

Compound: Oc1cccc2c1CC(N1CCCCC1)CC2 (stereo not shown) [Compound 24]
- "ED70%" for 5-HTP reduction (central 5-HT receptors): <20 µmol/kg

Compound: CCCCN(CCCC)C1CCc2cccc(O)c2C1 (stereo not shown) [Compound 22]
- "ED70%" for 5-HTP reduction (central 5-HT receptors): 8 µmol/kg

Compound: CNC1CCc2cccc(O)c2C1 (stereo not shown) [Compound 14]
- "ED70%" for 5-HTP reduction (central 5-HT receptors): 1.5 to 10 µmol/kg

Compound: CCCN(CCC)C1CCc2cccc(OC)c2C1 (single isomer, unassigned; (+)) [(+)-8]
- "ED70%" for 5-HTP reduction (central 5-HT receptors): 0.2 to 0.4 µmol/kg
- Mounts (number) (Male Wistar rats; 4 mg/kg i.p., 15 min after treatment, control 2, listed as (+)-8 · HCl): 1^*
- Ejaculatory latency (Male Wistar rats; 4 mg/kg i.p., 15 min after treatment, control 4.75, listed as (+)-8 · HCl): 1.05^*** min
- Postejaculatory interval (Male Wistar rats; 4 mg/kg i.p., 15 min after treatment, control 5.50, listed as (+)-8 · HCl): 6.15 min
- Intromissions (number) (Male Wistar rats; 4 mg/kg i.p., 15 min after treatment, control 9, listed as (+)-8 · HCl): 2^***

Compound: CCCCN(CCCC)C1CCc2cccc(OC)c2C1 (stereo not shown) [Compound 10]
- "ED70%" for 5-HTP reduction (central 5-HT receptors): 25 µmol/kg
- "ED70%" (central 5-HT receptors; [1]): above 10 umol/kg

Compound: CCCCNC1CCc2cccc(O)c2C1 (stereo not shown) [Compound 16]
- "ED70%" for 5-HTP reduction (central 5-HT receptors): 6 µmol/kg

Compound: CCCN(CCC)C1CCc2cccc(OC)c2C1 (single isomer, unassigned; (-)) [(-)-8]
- "ED70%" for 5-HTP reduction (central 5-HT receptors): 0.3 to 0.4 µmol/kg
- Mounts (number) (Male Wistar rats; 4 mg/kg i.p., 15 min after treatment, control 2, listed as (-)-8 · HCl): 0.5^*
- Ejaculatory latency (Male Wistar rats; 4 mg/kg i.p., 15 min after treatment, control 4.75, listed as (-)-8 · HCl): 1.30^*** min
- Postejaculatory interval (Male Wistar rats; 4 mg/kg i.p., 15 min after treatment, control 5.50, listed as (-)-8 · HCl): 5.65 min
- Intromissions (number) (Male Wistar rats; 4 mg/kg i.p., 15 min after treatment, control 9, listed as (-)-8 · HCl): 4.5^**

Compound: Br.CCCN(CCC)C1CCc2cccc(O)c2C1 (stereo not shown) [Compound 20, 2-(di-n-propylamino)-8-hydroxytetralin hydrobromide]
- "ED70%" for 5-HTP reduction (central 5-HT receptors): 0.06 µmol/kg
- "ED70%" (central 5-HT receptors; [2]): 0.01 to 1.0 µmol/kg
- Mounts (number) (Male Wistar rats; 4 mg/kg i.p., second experiment (N 9), control 1): 0
- Ejaculatory latency (Male Wistar rats; 4 mg/kg i.p., second experiment (N 9), control 1.80): 0.25 min
- Postejaculatory interval (Male Wistar rats; 4 mg/kg i.p., second experiment (N 9), control 4.45): 4.75 min
- Intromissions (number) (Male Wistar rats; 4 mg/kg i.p., second experiment (N 9), control 5): 1^***

Compound: CCCN(CCC)C1CCc2cccc(OC)c2C1 (racemic) [Compound 8, 2-(di-n-propylamino)-8-methoxytetralin]
- "ED70%" for 5-HTP reduction (central 5-HT receptors): 0.4 µmol/kg
- Mounts (number) (Male Wistar rats; 1 mg/kg i.p., 15 min after treatment, control 2): 0^* b)
- Ejaculatory latency (Male Wistar rats; 1 mg/kg i.p., 15 min after treatment, control 4.75): 3.20 min
- Postejaculatory interval (Male Wistar rats; 1 mg/kg i.p., 15 min after treatment, control 5.50): 6.40 min
- Intromissions (number) (Male Wistar rats; 1 mg/kg i.p., 15 min after treatment, control 9): 8
- Mounts (number) (Male Wistar rats; 2 mg/kg i.p., 15 min after treatment, control 2): 1
- Ejaculatory latency (Male Wistar rats; 2 mg/kg i.p., 15 min after treatment, control 4.75): 2.65 min
- Postejaculatory interval (Male Wistar rats; 2 mg/kg i.p., 15 min after treatment, control 5.50): 5.05 min
- Intromissions (number) (Male Wistar rats; 2 mg/kg i.p., 15 min after treatment, control 9): 7^***
- Mounts (number) (Male Wistar rats; 4 mg/kg i.p., 15 min after treatment, control 2): 1^***
- Ejaculatory latency (Male Wistar rats; 4 mg/kg i.p., 15 min after treatment, control 4.75): 1.55^*** min
- Postejaculatory interval (Male Wistar rats; 4 mg/kg i.p., 15 min after treatment, control 5.50): 4.55 min
- Intromissions (number) (Male Wistar rats; 4 mg/kg i.p., 15 min after treatment, control 9): 3.5^***
- Mounts (number) (Male Wistar rats; 8 mg/kg i.p., 15 min after treatment, control 2): 0^**
- Ejaculatory latency (Male Wistar rats; 8 mg/kg i.p., 15 min after treatment, control 4.75): 0.45^*** min
- Postejaculatory interval (Male Wistar rats; 8 mg/kg i.p., 15 min after treatment, control 5.50): 5.05 min
- Intromissions (number) (Male Wistar rats; 8 mg/kg i.p., 15 min after treatment, control 9): 1.5^***
- Mounts (number) (Male Wistar rats; 16 mg/kg i.p., 15 min after treatment, control 2): 0^***
- Ejaculatory latency (Male Wistar rats; 16 mg/kg i.p., 15 min after treatment, control 4.75): 0.55^*** min
- Postejaculatory interval (Male Wistar rats; 16 mg/kg i.p., 15 min after treatment, control 5.50): 4.55 min
- Intromissions (number) (Male Wistar rats; 16 mg/kg i.p., 15 min after treatment, control 9): 1^***
- castrated male rats that ejaculated (castrated male rats; 8 mg/kg, out of 9 rats (of the 2 with intromissions), preliminary): 1
- castrated male rats that made intromissions (castrated male rats; 8 mg/kg, out of 9 rats (of the 5 that mounted), preliminary): 2
- castrated male rats that mounted the female (castrated male rats; 8 mg/kg, out of 9 rats, none of 9 saline-treated showed any sexual activity, preliminary): 5
- sexual activity of male rats rendered sexual inactive by castration (castrated male rats; preliminary experiments): became sexual active

Compound: CCCN(Cc1ccccc1)C1CCc2cccc(O)c2C1 (stereo not shown) [Compound 23]
- "ED70%" for 5-HTP reduction (central 5-HT receptors): 3 µmol/kg

Compound: CC(C)NC1CCc2cccc(O)c2C1 (stereo not shown) [Compound 17]
- "ED70%" for 5-HTP reduction (central 5-HT receptors): 8 µmol/kg

Compound: CCCNC1CCc2cccc(O)c2C1 (stereo not shown) [Compound 15]
- "ED70%" for 5-HTP reduction (central 5-HT receptors): 0.4 µmol/kg

Compound: CCCN(CC)C1CCc2cccc(O)c2C1 (stereo not shown) [Compound 19]
- "ED70%" for 5-HTP reduction (central 5-HT receptors): 0.09 µmol/kg
